Results taken from US20150231090A1 (Hong Kong Baptist University, priority 2013, published 2015).

Test: Toxicity of Guttiferone K in vivo
Design: species or system BALB/c male mice
Details: 1, 3, 10 mg/kg i.p. for 28 days

In the case of CC(C)=CCC[C@@]1(C)[C@H](CC=C(C)C)C[C@]2(CC=C(C)C)C(=O)[C@@]1(CC=C(C)C)C(=O)C(C(=O)c1ccc(O)c(O)c1)=C2O [Guttiferone K], the “organ size and cell morphology of target organs (brain, heart, lung, liver, spleen, kidney)” value was “no evidence of organ size and cell morphology of target organs”.
